# Laboratory results: ChEMBL document CHEMBL1201862, “PubChem BioAssay data set” (2004)
# Calls of active or inactive are those of the source.
# Assays:
# [1] = target: T1, Protein skinhead-1 (Caenorhabditis elegans, UniProt P34707); type: functional
# T1 sequence (P34707 whole entry): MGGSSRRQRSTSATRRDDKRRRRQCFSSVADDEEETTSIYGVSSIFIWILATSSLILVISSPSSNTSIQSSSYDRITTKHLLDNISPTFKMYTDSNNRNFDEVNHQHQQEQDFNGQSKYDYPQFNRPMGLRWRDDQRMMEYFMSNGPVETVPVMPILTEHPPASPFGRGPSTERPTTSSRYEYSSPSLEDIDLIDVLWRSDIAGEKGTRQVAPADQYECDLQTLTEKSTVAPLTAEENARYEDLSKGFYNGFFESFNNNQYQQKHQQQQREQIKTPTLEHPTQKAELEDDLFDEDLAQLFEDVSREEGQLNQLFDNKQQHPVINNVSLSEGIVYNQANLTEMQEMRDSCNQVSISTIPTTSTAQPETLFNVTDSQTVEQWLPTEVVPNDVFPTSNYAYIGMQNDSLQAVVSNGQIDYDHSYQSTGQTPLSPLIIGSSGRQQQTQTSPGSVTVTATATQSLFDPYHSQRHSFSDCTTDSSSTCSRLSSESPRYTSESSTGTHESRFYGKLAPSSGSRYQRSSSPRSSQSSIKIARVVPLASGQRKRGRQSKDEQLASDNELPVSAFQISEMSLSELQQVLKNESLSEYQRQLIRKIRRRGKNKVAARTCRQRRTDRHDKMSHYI
# [2] = target: T2, Zinc finger protein mex-5 (Caenorhabditis elegans, UniProt Q9XUB2); assay: MEX-5/TCR-2 RNA interaction inhibitors, dose response, biochemical, C. elegans, fluorescence polarization (AID 1960)
# T2 sequence (Q9XUB2 whole entry): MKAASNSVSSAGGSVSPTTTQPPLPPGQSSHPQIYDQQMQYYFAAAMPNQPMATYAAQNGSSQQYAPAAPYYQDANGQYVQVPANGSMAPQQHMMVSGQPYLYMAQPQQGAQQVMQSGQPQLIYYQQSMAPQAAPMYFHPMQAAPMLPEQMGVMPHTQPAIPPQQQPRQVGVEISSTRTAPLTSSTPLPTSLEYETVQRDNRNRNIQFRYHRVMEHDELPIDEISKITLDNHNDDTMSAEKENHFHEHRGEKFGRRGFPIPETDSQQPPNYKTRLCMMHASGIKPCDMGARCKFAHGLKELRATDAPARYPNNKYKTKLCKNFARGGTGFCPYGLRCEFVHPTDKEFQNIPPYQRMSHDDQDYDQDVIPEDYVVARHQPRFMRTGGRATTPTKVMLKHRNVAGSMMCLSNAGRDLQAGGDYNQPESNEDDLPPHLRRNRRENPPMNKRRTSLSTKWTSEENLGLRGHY
# [3] = target: T3, RNA-binding protein pos-1 (Caenorhabditis elegans, UniProt G5EF15); assay: inhibitors of POS-1/mex-3 RNA binding, dose response, biochemical, fluorescence polarization (AID 1964);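 further: purified POS-1 fused to maltose binding protein made in E. coli; potency of compounds blocking POS-1 binding to fluorescent RNA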
# T3 sequence (G5EF15 whole entry): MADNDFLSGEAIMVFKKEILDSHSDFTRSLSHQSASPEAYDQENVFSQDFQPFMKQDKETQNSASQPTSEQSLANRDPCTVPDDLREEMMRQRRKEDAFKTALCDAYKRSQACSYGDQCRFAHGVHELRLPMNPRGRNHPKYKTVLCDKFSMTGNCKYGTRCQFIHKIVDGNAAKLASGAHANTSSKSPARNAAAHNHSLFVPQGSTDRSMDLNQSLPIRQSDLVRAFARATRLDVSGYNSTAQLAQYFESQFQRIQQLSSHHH
# [4] = target: Cytochrome P450 2C9 (Homo sapiens, UniProt P11712)
# Sequence of Cytochrome P450 2C9 (P11712 whole entry): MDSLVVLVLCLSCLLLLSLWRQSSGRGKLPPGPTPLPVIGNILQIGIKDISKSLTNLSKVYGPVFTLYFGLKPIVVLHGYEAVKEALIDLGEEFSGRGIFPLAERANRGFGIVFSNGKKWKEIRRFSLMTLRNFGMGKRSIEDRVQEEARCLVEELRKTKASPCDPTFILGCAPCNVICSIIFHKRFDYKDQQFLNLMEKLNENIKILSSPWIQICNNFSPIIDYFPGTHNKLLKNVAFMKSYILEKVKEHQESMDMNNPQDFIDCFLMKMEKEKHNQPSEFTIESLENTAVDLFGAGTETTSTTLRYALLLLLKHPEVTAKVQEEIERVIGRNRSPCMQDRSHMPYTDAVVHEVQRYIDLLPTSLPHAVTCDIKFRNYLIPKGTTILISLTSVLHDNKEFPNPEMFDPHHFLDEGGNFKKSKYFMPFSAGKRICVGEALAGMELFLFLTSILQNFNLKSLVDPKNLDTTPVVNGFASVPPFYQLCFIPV
# [5] = target: Cytochrome P450 2C19 (Homo sapiens, UniProt P33261); assay: Cytochrome panel assay with activity outcomes. Panel member name: p450-cyp2c19 Compounds with AC50 equal or less than 10 uM are considered active; type: functional; conditions: read-out: AC50
# Sequence of Cytochrome P450 2C19 (P33261 whole entry): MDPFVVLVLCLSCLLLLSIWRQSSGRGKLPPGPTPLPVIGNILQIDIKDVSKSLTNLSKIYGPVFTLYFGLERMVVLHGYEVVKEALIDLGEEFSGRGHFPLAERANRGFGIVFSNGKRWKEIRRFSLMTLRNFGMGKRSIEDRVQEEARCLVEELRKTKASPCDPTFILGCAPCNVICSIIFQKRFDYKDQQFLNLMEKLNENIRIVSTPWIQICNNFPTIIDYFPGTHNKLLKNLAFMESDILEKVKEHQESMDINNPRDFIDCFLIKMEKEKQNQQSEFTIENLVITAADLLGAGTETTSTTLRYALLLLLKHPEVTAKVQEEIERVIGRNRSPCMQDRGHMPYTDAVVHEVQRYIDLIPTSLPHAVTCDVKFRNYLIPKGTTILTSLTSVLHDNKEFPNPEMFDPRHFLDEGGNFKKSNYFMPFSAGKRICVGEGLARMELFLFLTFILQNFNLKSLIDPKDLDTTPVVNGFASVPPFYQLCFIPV
# [6] = system: H9c2; assay: cells; type: functional, cell-based; conditions: Rattus norvegicus, H9c2, Myocardium;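 further: confirmatory concentration-response retest of ultra-high-throughput screening hits for modulation of myocardial damage; cell death induced by hydrogen peroxide oxidative stress; compound pretreatment for 60 min then peroxide exposure for 2 h; potency is for protecting the cells against peroxide damage rather than for killing them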
# [7] = C. albicans growth with fluconazole, confirmation, fluorescence, retest (AID 2467); type: functional, cell-based
# [8] = NIH-3T3 fibroblast cytotoxicity, dose response, cytotoxicity control, cell-based, fluorescence, Alamar Blue, secondary assay (AID 2327); type: functional;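 further: NIH-3T3 mouse fibroblasts cultured with fluconazole at 8 µg/mL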
# [9] = microbe, parasite or virus in culture; type: functional; conditions: Mycobacterium tuberculosis
# [10] = target: T4, Corticotropin-releasing factor receptor 2/Corticotropin-releasing factor-binding protein (Homo sapiens, UniProt P24387+Q13324); assay: activators of CRF receptor 2 with binding protein – uHTS hits, confirmation (AID 602473); type: functional; conditions: read-out: EC50_Mean
# T4 sequence (Q13324 whole entry): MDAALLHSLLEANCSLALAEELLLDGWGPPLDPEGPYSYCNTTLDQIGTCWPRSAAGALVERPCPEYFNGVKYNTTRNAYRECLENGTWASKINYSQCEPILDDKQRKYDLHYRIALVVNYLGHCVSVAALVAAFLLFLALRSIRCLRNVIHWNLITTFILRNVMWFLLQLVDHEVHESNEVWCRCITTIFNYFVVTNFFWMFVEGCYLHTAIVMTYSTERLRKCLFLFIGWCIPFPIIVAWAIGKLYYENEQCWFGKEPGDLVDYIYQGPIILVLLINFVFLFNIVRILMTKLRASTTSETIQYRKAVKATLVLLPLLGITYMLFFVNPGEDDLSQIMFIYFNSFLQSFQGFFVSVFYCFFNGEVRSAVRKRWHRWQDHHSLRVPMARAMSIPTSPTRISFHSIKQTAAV
# T4 sequence (P24387 whole entry): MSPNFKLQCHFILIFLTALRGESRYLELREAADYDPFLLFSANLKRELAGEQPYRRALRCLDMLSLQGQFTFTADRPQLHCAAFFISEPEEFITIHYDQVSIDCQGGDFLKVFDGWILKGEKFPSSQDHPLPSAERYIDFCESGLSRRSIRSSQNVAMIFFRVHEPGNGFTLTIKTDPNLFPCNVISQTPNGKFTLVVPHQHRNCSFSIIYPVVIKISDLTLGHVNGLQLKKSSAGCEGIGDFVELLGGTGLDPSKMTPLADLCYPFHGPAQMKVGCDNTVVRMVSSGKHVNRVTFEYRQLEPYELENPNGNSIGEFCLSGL
# [11] = inhibitors of intracellular T. cruzi replication, confirmation, NIH3T3 host cells, beta-gal luminescence (AID 2044); type: functional, cell-based;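 further: intracellular parasites grown in NIH/3T3 mouse fibroblasts as host cells; luminescent beta-galactosidase reporter signal from transgenic T. cruzi replicating inside host cells; inhibitors lower the luminescence signal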
# [12] = cytotoxicity toward NIH3T3 fibroblasts, dose response, counter-screen, cell-based, ATP luminescence, mouse fibroblasts (AID 2010); type: functional;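 further: cells exposed to compound for about 90 hours before reading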
# [13] = Shn3 3'UTR reporter inhibitors, dose response, cell-based, Clone20 osteoblasts, firefly luciferase, cherry-picked (AID 624132); type: functional;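 further: firefly luciferase luminescence from reporter carrying the Shn3 3'UTR in osteoblasts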
structure (smiles),measurement,setting,value
CCN1C(=O)/C(=C/N(C)c2ccccc2)OC1=S,IC50,[1],76.6 µM (inactive)
Fc1ccc2c(c1)C1C=CCC1C(c1cc3c(cc1Br)OCO3)N2 (stereo not drawn),EC50,[2],> 300 µM (not active)
same,EC50,[3],> 300 µM (not active)
same,AC50,[4],1.78 µM (inconclusive)
same,AC50,[5],0.316 µM (inconclusive)
O=C(CCc1nc(O)c2ccccc2n1)Nc1ccc(F)c([N+](=O)[O-])c1,IC50,[6],> 79 µM (inactive)
Cc1ccc(-c2nnc(O)c3ccccc23)cc1S(=O)(=O)Nc1ccccc1,IC50,[6],21.3 µM (active)
O=[N+]([O-])c1ccc(S(=O)(=O)Nc2nc3ccccc3nc2Nc2ccccc2)cc1,EC50,[7],2.06 µM (active)
same,EC50,[8],> 150 µM (inactive)
Cc1onc(-c2ccccc2)c1C(=O)NN=C(N)COc1ccc(Cl)cc1,EC50,[7],> 38 µM (not active)
same,EC50,[8],> 150 µM (inactive)
O=C(O)c1cnc(-c2ccccc2)nc1Sc1ccccc1Cl,EC50,[7],0.356 µM (active)
same,EC50,[8],> 160 µM (inactive)
COc1cccc2cc(-c3cc(=O)oc4ccc(OCC(C)=O)cc34)oc12,IC50,[6],> 79 µM (inactive)
CCCCn1c(N)c(Br)c(=O)[nH]c1=O,IC50,[6],> 79 µM (inactive)
Cc1c(Cl)cccc1Nc1c([N+](=O)[O-])nn(-c2ccccc2)[n+]1[O-],IC50,[1],> 100 µM (inactive)
O=C(Nc1ccc(Br)c(Cl)c1)c1ccco1,IC50,[1],14.2 µM (active)
CCOC(=O)C1CCN(C(=O)CSCc2nc(-c3ccc(OCC)cc3)oc2C)CC1,CC50,[9],> 40 µM (active)
O=C(CCC(=O)N1CCN(C2CCCCC2)CC1)Nc1nnc(C(F)(F)F)s1,IC50,[6],> 79 µM (inactive)
Cc1nc(N2CCN(S(=O)(=O)c3cccc4nonc34)CC2)c2c3c(sc2n1)CCCC3,IC50,[6],> 79 µM (inactive)
COc1ccccc1Nc1nc(N)nc(CCl)n1,CC50,[9],1.88 µM (active)
N#C/C(=C/c1ccc(Sc2nc3ccccc3[nH]2)o1)c1cccc(Br)c1,CC50,[9],> 40 µM (active)
O=C(NN=C(S)Nc1cccc(C(F)(F)F)c1)c1ccc(Cl)cc1Cl,EC50,[7],4.65 µM (active)
same,EC50,[10],> 53 µM (inactive)
same,EC50,[8],> 160 µM (inactive)
O=C(/C=C/c1cccs1)c1ccc(Br)cc1,IC50,[1],73.8 µM (inactive)
Cc1ccc(NC(=O)CNC(=O)c2cccs2)cc1S(=O)(=O)Nc1ccc(Cl)cc1,IC50,[1],> 100 µM (inactive)
CCCc1ccc(OCC(=O)Nc2cc(S(=O)(=O)CC)ccc2O)cc1,EC50,[7],1.45 µM (active)
same,EC50,[8],> 160 µM (inactive)
c1ccc(-c2nc(-n3ccnc3)nc(-n3ccnc3)n2)cc1,IC50,[6],> 79 µM (inactive)
CC(=O)Nc1cc(C(F)(F)F)ccc1OCC1CCCO1 (stereo not drawn),IC50,[1],> 100 µM (inactive)
CCSc1ccc2cc(OC)ccc2[n+]1CC,EC50,[11],6.53 µM (active)
same,EC50,[12],> 60 µM (not active)
same,EC50,[7],> 38 µM (not active)
same,EC50,[8],> 160 µM (inactive)
NS(=O)(=O)c1ccc(N/C=C2/C(=O)N(c3nccs3)C(=O)c3ccccc32)cc1,IC50,[6],> 79 µM (inactive)
O=C(NCc1ccc2c(c1)OCO2)c1nnc(O)c2ccccc12,IC50,[6],> 79 µM (inactive)
Fc1ccccc1-c1nc(-c2ccc(Cl)cc2)no1,IC50,[1],> 100 µM (inactive)
CCOC(=O)C1CCN(c2cc3c(cc2NC(=O)c2ccc(F)cc2)n(C)c(=O)n3C)CC1,IC50,[6],16.7 µM (active)
C/C(=N\NC(=O)c1nnn(-c2nonc2N)c1CSc1ccc(C)cc1)c1cccnc1,IC50,[6],> 79 µM (inactive)
CCOc1ccc(NC(=O)CN(C)C(=O)Cc2nnc(O)c3ccccc23)cc1OCC,IC50,[6],> 79 µM (inactive)
O=C(OCC(=O)N1CCc2ccccc21)c1nnc(O)c2ccccc12,IC50,[6],12.3 µM (active)
C[C@]12CC[C@H](O)CC1=CCC1C2CC[C@@]2(C)C1CCC21OCCO1 (stereo partly drawn),AC50,[13],27.3 µM (active)
COc1ccc(OC)c(/C=c2\sc3nc(-c4cccs4)nn3c2=O)c1,EC50,[2],> 300 µM (inconclusive)
same,EC50,[3],> 300 µM (not active)
same,EC50,[10],6.32 µM (active)
O=c1cc(/C=C/c2ccccc2)oc2ccccc12,IC50,[1],78.9 µM (inactive)
same,CC50,[9],> 40 µM (active)
